# Data taken from patent US20250269046A1, “CELLULAR UPTAKE OF LARGE BIOMOLECULES ENABLED BY CELL-SURFACE-REACTIVE CELL-PENETRATING PEPTIDE ADDITIVES” (FORSCHUNGSVERBUND BERLIN E.V., priority 2021, published 2025).
# Test system: cells
# Test: Cellular uptake of mCherry variants (K10, exR10, R5, R8) with or without TNB-R10 5
# Assay type: cell-based
# Source text: Most of our findings point to an energy-independent mode of uptake, but to probe whether TNB-R10 5 can also lead to endosomal leakage of an entrapped cargo, the inventors used peptide 5 on cells in combination with an mCherry variant (NLS-mCherry-K10 Ilil) that had been modified with a K10 peptide (via maleimide chemistry, see FIG. 8).
# The inventors also tested if recombinantly expressed CPP-fusion proteins can be delivered, as these require much less equipment and effort to produce.
# In the same vein, the inventors also made mCherry variants modified with R5 and R8 peptides and co-delivered them into cells with TNB-R10 5 (FIGS. 36-37).
substance,measurement,setting,value
"NLS-mCherry-exR10 IV: recombinantly expressed mCherry with a C-terminal R10 peptide, SEQ ID NO: 3",uptake of recombinant CPP-fusion protein,5 μM alone,predominantly endosomal uptake
same,uptake of recombinant CPP-fusion protein,5 μM with addition of peptide 5,efficiently rescued
